These results are taken from patent publication US12662451B2, “Chemical compounds and uses thereof” (GLAXOSMITHKLINE INTELLECTUAL PROPERTY (NO.4) LIMITED, priority 2023, dated 2026).

Where a name gives a salt, the structure may show the parent alone.

T1 sequence (Q14191 whole entry): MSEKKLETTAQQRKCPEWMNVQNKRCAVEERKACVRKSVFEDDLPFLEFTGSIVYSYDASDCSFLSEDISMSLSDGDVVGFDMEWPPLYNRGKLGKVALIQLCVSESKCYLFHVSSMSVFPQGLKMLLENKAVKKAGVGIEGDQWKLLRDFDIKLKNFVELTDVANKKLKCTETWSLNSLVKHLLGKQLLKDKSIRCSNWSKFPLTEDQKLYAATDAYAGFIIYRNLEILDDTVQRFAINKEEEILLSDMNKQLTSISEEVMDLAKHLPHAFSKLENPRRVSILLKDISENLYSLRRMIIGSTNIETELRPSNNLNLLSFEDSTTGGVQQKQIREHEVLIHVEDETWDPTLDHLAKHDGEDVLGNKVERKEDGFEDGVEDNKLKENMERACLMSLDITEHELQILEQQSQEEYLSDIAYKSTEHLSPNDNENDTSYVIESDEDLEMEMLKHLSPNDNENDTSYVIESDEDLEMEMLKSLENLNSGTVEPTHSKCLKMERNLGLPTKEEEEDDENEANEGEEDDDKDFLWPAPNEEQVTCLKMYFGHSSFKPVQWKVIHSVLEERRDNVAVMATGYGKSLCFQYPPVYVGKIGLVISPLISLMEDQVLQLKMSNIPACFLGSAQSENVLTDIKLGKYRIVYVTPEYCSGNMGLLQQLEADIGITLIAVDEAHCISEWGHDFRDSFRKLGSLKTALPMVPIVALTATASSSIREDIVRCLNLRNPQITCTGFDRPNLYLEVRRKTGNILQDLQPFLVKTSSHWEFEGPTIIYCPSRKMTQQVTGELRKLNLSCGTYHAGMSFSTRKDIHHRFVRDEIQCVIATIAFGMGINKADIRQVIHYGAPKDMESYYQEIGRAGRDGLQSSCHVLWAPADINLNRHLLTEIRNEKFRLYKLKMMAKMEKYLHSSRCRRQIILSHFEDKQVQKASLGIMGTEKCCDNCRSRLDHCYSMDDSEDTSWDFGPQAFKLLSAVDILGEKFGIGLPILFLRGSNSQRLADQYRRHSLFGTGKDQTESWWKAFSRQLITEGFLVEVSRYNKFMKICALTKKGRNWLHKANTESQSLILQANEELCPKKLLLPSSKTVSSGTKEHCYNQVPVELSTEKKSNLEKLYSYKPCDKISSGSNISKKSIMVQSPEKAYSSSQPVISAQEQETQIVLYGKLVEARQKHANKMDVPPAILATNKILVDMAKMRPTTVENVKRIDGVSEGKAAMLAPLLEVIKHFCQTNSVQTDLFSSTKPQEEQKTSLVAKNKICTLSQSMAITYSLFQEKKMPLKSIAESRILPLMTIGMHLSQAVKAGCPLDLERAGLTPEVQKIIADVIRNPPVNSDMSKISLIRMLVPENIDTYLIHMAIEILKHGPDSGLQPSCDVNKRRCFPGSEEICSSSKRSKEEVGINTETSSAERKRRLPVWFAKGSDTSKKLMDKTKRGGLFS

This assay concerns the target T1, recombinant full-length WRN protein (1-1432) (Homo sapiens, UniProt Q14191).
T1 construct: recombinant full-length WRN protein (1-1432)
The assay can be described thus: WRN unwinding activity, fluorogenic 384-well assay (Example A). The following applies: WRN unwinding activity, 4 hr; Table 2; read-out: 4 hr UNW pIC50 (converted). It counts as biochemical. The essentials: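 Read-out is end-point unwinding of a fluorophore/quencher duplex (ex 525, em 598 nm) after 60 min with 200 μM ATP and 12 nM DNA (2× stocks), EDTA stop. Compound first sat 4 h with 200 pM WRN (2× stock) in pH 8.0 Tris buffer; four-parameter fit gives pIC50.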
For the compound `CC(=O)N1C[C@H](C(=O)Nc2ccc(C(F)(F)F)cc2F)[C@@H](C(=O)O)[C@H](c2ccc(N(C)S(=O)(=O)c3ccc4c(c3)nc(C)n4C)cc2)C1` (stereo in doubt) [Example 309, rel-(3R,4S,5R)-1-acetyl-3-((2-fluoro-4-(trifluoromethyl)phenyl)carbamoyl)-5-(4-((N,1,2-trimethyl-1H-benzo[d]imidazole)-5-sulfonamido)phenyl)piperidine-4-carboxylic acid], the IC50 was 200 nM.

For `Cc1nc2cc(S(=O)(=O)N(C)c3ccc([C@@H]4C[C@H](OC5CCC5)C[C@H](C(=O)Nc5ccc(C(F)(F)F)cc5F)[C@H]4C(=O)O)cc3)ccc2n1C` (stereo in doubt) [Example 326, rel-(1R,2R,4R,6S)-4-cyclobutoxy-2-((2-fluoro-4-(trifluoromethyl)phenyl)carbamoyl)-6-(4-((N,1,2-trimethyl-1H-benzo[d]imidazole)-5-sulfonamido)phenyl)cyclohexane-1-carboxylic acid], the IC50 was 631 nM.

For `Cc1nc2cc(S(=O)(=O)N(C)c3ccc([C@@H]4C[C@@H](NCC(F)(F)F)C[C@H](C(=O)Nc5ccc(C(F)(F)F)cc5F)[C@H]4C(=O)O)cc3)ccc2n1C` (stereo in doubt) [Example 335, rel-(1R,2R,4S,6S)-2-((2-fluoro-4-(trifluoromethyl)phenyl)carbamoyl)-4-((2,2,2-trifluoroethyl)amino)-6-(4-((N,1,2-trimethyl-1H-benzo[d]imidazole)-5-sulfonamido)phenyl)cyclohexane-1-carboxylic acid], the IC50 is 2510 nM.

With `Cc1cc(N(C)S(=O)(=O)c2ccc3c(c2)nc(C)n3C)ccc1[C@@H]1CCC[C@H](C(=O)Nc2ccc(C(F)(F)F)cc2F)[C@H]1C(=O)O` (stereo in doubt) [Example 385, rel-(1R,2R,6S)-2-((2-fluoro-4-(trifluoromethyl)phenyl)carbamoyl)-6-(2-methyl-4-((N,1,2-trimethyl-1H-benzo[d]imidazole)-5-sulfonamido)phenyl)cyclohexane-1-carboxylic acid], the IC50 was 1260 nM.

In the case of `Cc1nc2cc(S(=O)(=O)N(C)c3ccc([C@H]4C[C@]5(CCCO5)C[C@@H](C(=O)Nc5ccc(C(F)(F)F)cc5F)[C@@H]4C(=O)O)cc3)ccc2n1C` (stereo in doubt) [Example 388, rel-(5R,7R,8R,9S)-7-((2-fluoro-4-(trifluoromethyl)phenyl)carbamoyl)-9-(4-((N,1,2-trimethyl-1H-benzo[d]imidazole)-5-sulfonamido)phenyl)-1-oxaspiro[4.5]decane-8-carboxylic acid], the IC50 was 3.98 nM.

As for `Cc1nc2cc(S(=O)(=O)N(C)c3ccc([C@H]4C[C@@H]5COC[C@@H]5[C@@H](C(=O)Nc5ccc(C(F)(F)F)cc5F)[C@@H]4C(=O)O)cc3)ccc2n1C` (stereo in doubt) [Example 393, rel-(3aR,4S,5S,6R,7aR)-4-((2-fluoro-4-(trifluoromethyl)phenyl)carbamoyl)-6-(4-((N,1,2-trimethyl-1H-benzo[d]imidazole)-5-sulfonamido)phenyl)octahydroisobenzofuran-5-carboxylic acid], the IC50 is 251 nM.

In the case of `Cc1nc2cc(S(=O)(=O)N(C)c3ccc([C@@H]4C[C@H]5COC[C@H]5[C@H](C(=O)Nc5ccc(C(F)(F)F)cc5F)[C@H]4C(=O)O)cc3)ccc2n1C` (stereo in doubt) [Example 394, rel-(3aR,4S,5S,6R,7aR)-4-((2-fluoro-4-(trifluoromethyl)phenyl)carbamoyl)-6-(4-((N,1,2-trimethyl-1H-benzo[d]imidazole)-5-sulfonamido)phenyl)octahydroisobenzofuran-5-carboxylic acid], the IC50 was 501 nM.

As for `O=C(O)[C@@H]1[C@@H](c2ccc(-c3ccccc3CN3CCOCC3)cc2)CCC[C@H]1C(=O)Nc1ccc(C(F)(F)F)cc1F` [Example 4, (1R,2R,6S)-2-((2-fluoro-4-(trifluoromethyl)phenyl)carbamoyl)-6-(2′-(morpholinomethyl)-[1,1′-biphenyl]-4-yl)cyclohexane-1-carboxylic acid], the IC50 is 1000 nM.

On to `O=C(O)[C@@H]1[C@@H](c2ccc(-c3ccn[nH]3)cc2)CCC[C@H]1C(=O)Nc1ccc(C(F)(F)F)cc1F` [Example 5, (1R,2S,6R)-2-(4-(1H-pyrazol-5-yl)phenyl)-6-((2-fluoro-4-(trifluoromethyl)phenyl)carbamoyl)cyclohexane-1-carboxylic acid], for which the IC50 was 20 nM.

As for `O=C(O)[C@@H]1[C@@H](c2ccc(-c3ccncc3)cc2)CCC[C@H]1C(=O)Nc1ccc(C(F)(F)F)cc1F` [Example 7, (1R,2R,6S)-2-((2-fluoro-4-(trifluoromethyl)phenyl)carbamoyl)-6-(4-(pyridin-4-yl)phenyl)cyclohexane-1-carboxylic acid], the IC50 is 100 nM.

For the compound `Cn1cc(-c2ccc([C@H]3CCC[C@@H](C(=O)Nc4ccc(C(F)(F)F)cc4F)[C@@H]3C(=O)O)cc2)cn1` [Example 12, (1R,2R,6S)-2-((2-fluoro-4-(trifluoromethyl)phenyl)carbamoyl)-6-(4-(1-methyl-1H-pyrazol-4-yl)phenyl)cyclohexane-1-carboxylic acid], the IC50 was 63.1 nM.

`Cc1ncccc1-c1ccc([C@H]2CCC[C@@H](C(=O)Nc3ccc(C(F)(F)F)cc3F)[C@@H]2C(=O)O)cc1` [Example 13, (1R,2R,6S)-2-((2-fluoro-4-(trifluoromethyl)phenyl)carbamoyl)-6-(4-(2-methylpyridin-3-yl)phenyl)cyclohexane-1-carboxylic acid, formic acid salt]: the IC50 was 63.1 nM.

`O=C(O)[C@@H]1[C@@H](c2ccc(-c3cccc(O)n3)cc2)CCC[C@H]1C(=O)Nc1ccc(C(F)(F)F)cc1F` [Example 14, (1R,2R,6S)-2-((2-fluoro-4-(trifluoromethyl)phenyl)carbamoyl)-6-(4-(6-hydroxypyridin-2-yl)phenyl)cyclohexane-1-carboxylic acid]: the IC50 is 7.94 nM.

With `O=C(O)[C@@H]1[C@@H](c2ccc(-c3cnn4c3CCC4)cc2)CCC[C@H]1C(=O)Nc1ccc(C(F)(F)F)cc1F` [Example 17, (1R,2S,6R)-2-(4-(5,6-dihydro-4H-pyrrolo[1,2-b]pyrazol-3-yl)phenyl)-6-((2-fluoro-4-(trifluoromethyl)phenyl)carbamoyl)cyclohexane-1-carboxylic acid], the IC50 is 20 nM.

Turning to `O=C(O)[C@@H]1[C@@H](c2ccc(-c3ccccc3COC3CCOCC3)cc2)CCC[C@H]1C(=O)Nc1ccc(C(F)(F)F)cc1F` [Example 19, (1R,2R,6S)-2-((2-fluoro-4-(trifluoromethyl)phenyl)carbamoyl)-6-(2′-(((tetrahydro-2H-pyran-4-yl)oxy)methyl)-[1,1′-biphenyl]-4-yl) cyclohexane-1-carboxylic acid], the IC50 was 316 nM.

In the case of `O=C(Cc1cccc(-c2ccc([C@H]3CCC[C@@H](C(=O)Nc4ccc(C(F)(F)F)cc4F)[C@@H]3C(=O)O)cc2)c1)NC1CC1` [Example 20, (1R,2S,6R)-2-(3′-(2-(cyclopropylamino)-2-oxoethyl)-[1,1′-biphenyl]-4-yl)-6-((2-fluoro-4-(trifluoromethyl)phenyl)carbamoyl)cyclohexane-1-carboxylic acid], the IC50 is 6310 nM.
